From PubChem BioAssay AID1963853 (Molecular Pharmacology Branch, DTP, NCI, 2024)

System: 266295-075-R-J1-PDC spheroid viability
Assay: Anticancer human tumor 266295-075-R-J1-PDC patient-derived head and neck squamous carcinoma cell line growth inhibition [POLQ]
Settings: spheroids with HUVEC and MSC; for IC50: curve of first compound; for viability, T/C: stronger effect = lower value
Method in brief: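 Growth inhibition in 3D: complex spheroids (tumor PDC, HUVEC, MSC) treated with POLQ inhibitor combinations; where Cmax unknown, highest tested concentration 10 microM, except SN-38 at 1 microM.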
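Note: spheroids exposed to compounds for seven days before readout.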

Question: Which IC50 (second compound 0.0316 µM) does the source give for `CCc1cc2c(N3CCc4c(cc(Cn5ccnc5)cc4-c4cn(C)nc4C(F)(F)F)C3=O)ccnc2c(OC)n1` + Nc1ccc(C#CCN(C(=O)Cc2ncc(C(F)(F)F)cc2C(F)(F)F)c2ccc(F)cc2)nn1 here?
Answer: > 10 µM

Question: What about the IC50 (second compound 0.1 µM) of the same compound?
Answer: > 10 µM

Question: And the IC50 (second compound 0.316 µM)?
Answer: > 10 µM

Question: What about the IC50 (second compound 1 µM) of the same compound?
Answer: > 10 µM

Question: And the IC50 (second compound 3.16 µM)?
Answer: > 10 µM

Question: What about the IC50 (second compound 10 µM) of the same compound?
Answer: > 10 µM

Question: What about the viability, T/C (second compound 0.0316 µM, first compound 0.0316 µM) of the same compound?
Answer: 92.7%

Question: What about the viability, T/C (second compound 0.0316 µM, first compound 0.1 µM) of the same compound?
Answer: 102%

Question: And the viability, T/C (second compound 0.0316 µM, first compound 0.316 µM)?
Answer: 105%

Question: What about the viability, T/C (second compound 0.0316 µM, first compound 1 µM) of the same compound?
Answer: 141%

Question: What about the viability, T/C (second compound 0.0316 µM, first compound 3.16 µM) of the same compound?
Answer: 183%

Question: And the viability, T/C (second compound 0.0316 µM, first compound 10 µM)?
Answer: 159%

Question: And the viability, T/C (second compound 0.1 µM, first compound 0.0316 µM)?
Answer: 100%

Question: And the viability, T/C (second compound 0.1 µM, first compound 0.1 µM)?
Answer: 110%

Question: What about the viability, T/C (second compound 0.1 µM, first compound 0.316 µM) of the same compound?
Answer: 91.7%

Question: What about the viability, T/C (second compound 0.1 µM, first compound 1 µM) of the same compound?
Answer: 135%

Question: What about the viability, T/C (second compound 0.1 µM, first compound 3.16 µM) of the same compound?
Answer: 127%

Question: What about the viability, T/C (second compound 0.1 µM, first compound 10 µM) of the same compound?
Answer: 132%

Question: What about the viability, T/C (second compound 0.316 µM, first compound 0.0316 µM) of the same compound?
Answer: 116%

Question: What about the viability, T/C (second compound 0.316 µM, first compound 0.1 µM) of the same compound?
Answer: 120%

Question: And the viability, T/C (second compound 0.316 µM, first compound 0.316 µM)?
Answer: 110%

Question: And the viability, T/C (second compound 0.316 µM, first compound 1 µM)?
Answer: 138%

Question: And the viability, T/C (second compound 0.316 µM, first compound 3.16 µM)?
Answer: 148%

Question: What about the viability, T/C (second compound 0.316 µM, first compound 10 µM) of the same compound?
Answer: 127%

Question: What about the viability, T/C (second compound 1 µM, first compound 0.0316 µM) of the same compound?
Answer: 109%

Question: What about the viability, T/C (second compound 1 µM, first compound 0.1 µM) of the same compound?
Answer: 117%

Question: What about the viability, T/C (second compound 1 µM, first compound 0.316 µM) of the same compound?
Answer: 97.5%

Question: What about the viability, T/C (second compound 1 µM, first compound 1 µM) of the same compound?
Answer: 114%

Question: And the viability, T/C (second compound 1 µM, first compound 3.16 µM)?
Answer: 134%

Question: And the viability, T/C (second compound 1 µM, first compound 10 µM)?
Answer: 115%

Question: And the viability, T/C (second compound 3.16 µM, first compound 0.0316 µM)?
Answer: 99.8%

Question: And the viability, T/C (second compound 3.16 µM, first compound 0.1 µM)?
Answer: 103%

Question: And the viability, T/C (second compound 3.16 µM, first compound 0.316 µM)?
Answer: 122%

Question: What about the viability, T/C (second compound 3.16 µM, first compound 1 µM) of the same compound?
Answer: 102%

Question: And the viability, T/C (second compound 3.16 µM, first compound 3.16 µM)?
Answer: 110%

Question: And the viability, T/C (second compound 3.16 µM, first compound 10 µM)?
Answer: 130%

Question: What about the viability, T/C (second compound 10 µM, first compound 0.0316 µM) of the same compound?
Answer: 103%

Question: What about the viability, T/C (second compound 10 µM, first compound 0.1 µM) of the same compound?
Answer: 97.7%

Question: And the viability, T/C (second compound 10 µM, first compound 0.316 µM)?
Answer: 118%

Question: What about the viability, T/C (second compound 10 µM, first compound 1 µM) of the same compound?
Answer: 115%

Question: What about the viability, T/C (second compound 10 µM, first compound 3.16 µM) of the same compound?
Answer: 133%

Question: What about the viability, T/C (second compound 10 µM, first compound 10 µM) of the same compound?
Answer: 121%
